Assay results reported in patent US20100190747A1, “Fused ring compound and use thereof” (priority 2009, published 2010).

Biological target: T1, delta-5-desaturase (Rattus norvegicus, UniProt Q920R3)
T1 construct: the microsomal fraction of a rat river (10 μl), which had been diluted to 3 mg/ml; from tissue; host or cells: rat liver microsomal fraction
Assay: Inhibitory activity on delta-5-desaturase (rat liver microsomal fraction, 14C-eicosatrienoic acid, TLC)
Type: biochemical
Conditions: test compound at 10 μM, room temperature, 120 minutes
Description: An inhibitory activity of a test compound on delta-5-desaturase was measured according to the method described herein below. To a DMSO solution of the test compound which had been previously prepared, secondary dilution was carried out by using a buffer (300 mM NaH2PO4 [pH 7.4], 450 mM KCl, 30 mM NaF, 9 mM MgCl2, 4.5 mM glutathione [reduced form], 0.3% BSA [fatty acid free, SIGMA]). This diluent compound (10 μl) was added in a 96-well deep well block made of polypropylene, and then the microsomal fraction of a rat river (10 μl), which had been diluted to 3 mg/ml by using a microsome buffer (10 mM Tris-HCl [pH 7.4], 1 mM EDTA, and 250 mM sucrose), was added thereto. The enzyme reaction was initiated by adding 10 μl of 9 mM NADH, 9 mM ATP, 0.9 mM CoA and 10 μCi/ml (8E,11E,14E)-(1-^14C)eicosa-8,11,14-trienoic acid (PerkinElmer Inc.). The enzyme reaction was carried out at room temperature for 120 minutes, and then terminated by addition of 2.5 M NaOH (10 μl). Upon the completion of the reaction, the plate was covered with plate seal and incubated overnight in a dry heater of which temperature was set at 55° C. for saponification. Based on Bligh & Dyer method which had been described in a known document, Canadian Journal of Biochemistry and Physiology (Can. J. Biochem. Physiol.), Vol. 37, page 911, 1959), the solvent extraction of fatty acid was carried out by adding 200 μl of formic acid:methanol:chloroform (1:6:3), keeping the mixture as a single layer for a while, stirring the mixture to a sufficient level, and adding 120 μl of pure water to separate the mixture into two layers. 10 μl of the bottom chloroform layer was spotted on a reverse phase TLC plate (RP-18, 1154230001, Merck Japan, Ltd.) and then developed with acetonitrile:pure water:acetic acid (95:4.5:0.5). The TLC plate obtained after drying was transferred to an Imaging Plate (Fuji Photo Film Co., Ltd.) for more than 5 hours. Detection was carried out by using BAS-5000 (Fuji Photo Film Co., Ltd.). Numerization of thus-obtained image was carried out by using Multi Gauge Ver 2.3 (Fuji Photo Film Co., Ltd.) and an inhibitory ratio (%) of the test compound at 10 μM on delta-5-desaturase was obtained.

T1 sequence (Q920R3 whole entry): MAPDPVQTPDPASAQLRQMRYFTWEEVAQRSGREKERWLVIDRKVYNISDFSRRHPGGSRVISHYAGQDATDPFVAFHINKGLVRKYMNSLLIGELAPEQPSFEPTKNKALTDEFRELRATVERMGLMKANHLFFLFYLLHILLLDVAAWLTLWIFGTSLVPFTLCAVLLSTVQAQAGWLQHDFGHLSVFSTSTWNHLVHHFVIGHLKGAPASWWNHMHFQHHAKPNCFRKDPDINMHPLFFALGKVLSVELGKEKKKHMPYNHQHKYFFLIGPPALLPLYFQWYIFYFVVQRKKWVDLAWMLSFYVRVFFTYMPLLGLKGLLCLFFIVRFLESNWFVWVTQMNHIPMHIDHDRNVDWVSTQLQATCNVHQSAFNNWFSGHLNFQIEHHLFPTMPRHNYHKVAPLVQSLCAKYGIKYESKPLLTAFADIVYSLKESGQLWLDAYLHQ

| inhibition at 10 µM [%] | Compound |
| --- | --- |
| 99 | CC(CCSc1nc2cc[nH]c2c(=O)n1-c1ccc(OCC(F)(F)F)cc1)C(=O)NCCC#N (stereo not shown) [Example 85, N-(2-cyanoethyl)-2-methyl-4-({4-oxo-3-[4-(2,2,2-trifluoroethoxy)phenyl]-4,5-dihydro-3H-pyrrolo[3,2-d]pyrimidin-2-yl)sulfanyl)butanamide] |
| 103 | O=c1c2cc[nH]c2nc(OC2CCC2)n1-c1ccc(OCC(F)(F)F)cc1 [Example 247, 2-(Cyclobutyloxy)-3-[4-(2,2,2-trifluoroethoxy)phenyl]-3,7-dihydro-4H-pyrrolo[2,3-d]pyrimidin-4-one] |
| 101 | O=C1Cc2c(nc(Sc3ccc(F)cc3)n(-c3ccc(OCC(F)(F)F)cc3)c2=O)N1 [Example 336, 2-[(4-Fluorophenyl)sulfanyl]-3-[4-(2,2,2-trifluoroethoxy)phenyl]-5,7-dihydro-3H-pyrrolo[2,3-d]pyrimidine-4,6-dione] |
| 99 | CCOc1nc2[nH]ccc2c(=O)n1-c1ccc(OCC(F)(F)F)cc1 [Example 209, 2-Ethoxy-3-[4-(2,2,2-trifluoroethoxy)phenyl]-3,7-dihydro-4H-pyrrolo[2,3-d]pyrimidin-4-one] |
| 103 | O=c1c2cc[nH]c2nc(SC(F)F)n1-c1ccc(OCC(F)(F)F)cc1 [Example 223, 2-[(Difluoromethyl)sulfanyl]-3-[4-(2,2,2-trifluoroethoxy)phenyl]-3,7-dihydro-4H-pyrrolo[2,3-d]pyrimidin-4-one] |
| 100 | COCCOCCCSc1nc2cc[nH]c2c(=O)n1-c1ccc(OCC2CC2)cc1 [Example 141, 3-[4-(Cyclopropylmethoxy)phenyl]-2-{[3-(2-methoxyethoxy)propyl]sulfanyl}-3,5-dihydro-4H-pyrrolo[3,2-d]pyrimidin-4-one] |
| 100 | O=c1c2[nH]ccc2nc(SCC(F)(F)F)n1-c1ccc(OCC(F)(F)F)cc1 [Example 103, 3-[4-(2,2,2-Trifluoroethoxy)phenyl]-2-[(2,2,2-trifluoroethyl)sulfanyl]-3,5-dihydro-4H-pyrrolo[3,2-d]pyrimidin-4-one] |
| 101 | O=C1Cc2c(nc(SCC3CC3)n(-c3ccc(OCC(F)(F)F)c(F)c3)c2=O)N1 [Example 322, 2-[(Cyclopropylmethyl)sulfanyl]-3-[3-fluoro-4-(2,2,2-trifluoroethoxy)phenyl]-5,7-dihydro-3H-pyrrolo[2,3-d]pyrimidine-4,6-dione] |
| 98 | CCOCCOCCSc1nc2cc[nH]c2c(=O)n1-c1ccc(OCC2CC2)cc1 [Example 142, 3-[4-(Cyclopropylmethoxy)phenyl]-2-{[2-(2-ethoxyethoxy)ethyl]sulfanyl}-3,5-dihydro-4H-pyrrolo[3,2-d]pyrimidin-4-one] |
| 94 | CCOc1nc2c(c(=O)n1-c1ccc(OCC(F)(F)C(F)(F)F)cc1)CC(=O)N2 [Example 277, 2-Ethoxy-3-[4-(2,2,3,3,3-pentafluoropropoxy)phenyl]-5,7-dihydro-3H-pyrrolo[2,3-d]pyrimidine-4,6-dione] |
| 101 | CCC(CC)Sc1nc2c(c(=O)n1-c1ccc(OCC(F)(F)F)cc1)CC(=O)N2 [Example 340, 2-[(1-Ethylpropyl)sulfanyl]-3-[4-(2,2,2-trifluoroethoxy)phenyl]-5,7-dihydro-3H-pyrrolo[2,3-d]pyrimidine-4,6-dione] |
| 97 | N#CCCNC(=O)CCCSc1nc2[nH]ccc2c(=O)n1-c1ccc(OCC2CC2)cc1 [Example 185, N-(2-cyanoethyl)-4-({3-[4-(cyclopropylmethoxy)phenyl]-4-oxo-4,7-dihydro-3H-pyrrolo[2,3-d]pyrimidin-2-yl}sulfanyl)butanamide] |
| 102 | O=c1c2[nH]ccc2nc(SCCCCO)n1-c1ccc(OCC(F)(F)F)cc1 [Example 119, 2-[(4-Hydroxybutyl)sulfanyl]-3-[4-(2,2,2-trifluoroethoxy)phenyl]-3,5-dihydro-4H-pyrrolo[3,2-d]pyrimidin-4-one] |
| 98 | CC1(COc2ccc(-n3c(SCCCC(=O)NCCC#N)nc4[nH]ccc4c3=O)cc2)CC1 [Example 188, N-(2-cyanoethyl)-4-[(3-{4-[(1-methylcyclopropyl)methoxy]phenyl}-4-oxo-4,7-dihydro-3H-pyrrolo[2,3-d]pyrimidin-2-yl)sulfanyl]butanamide] |
| 96 | CCCCSc1nc2[nH]ccc2c(=O)n1-c1ccc(OCC(F)(F)F)cc1 [Example 252, 2-(Butylsulfanyl)-3-[4-(2,2,2-trifluoroethoxy)phenyl]-3,7-dihydro-4H-pyrrolo[2,3-d]pyrimidin-4-one] |
| 101 | CCSc1nc2c(c(=O)n1-c1ccc(OCC3CC3)cc1)CC(=O)N2 [Example 300, 3-[4-(Cyclopropylmethoxy)phenyl]-2-(ethylsulfanyl)-5,7-dihydro-3H-pyrrolo[2,3-d]pyrimidine-4,6-dione] |
| 99 | O=C(CCCSc1nc2cc[nH]c2c(=O)n1-c1ccc(OCC(F)(F)F)cc1)NC1CC1 [Example 76, N-cyclopropyl-4-({4-oxo-3-[4-(2,2,2-trifluoroethoxy)phenyl]-4,5-dihydro-3H-pyrrolo[3,2-d]pyrimidin-2-yl}sulfanyl)butanamide] |
| 97 | N#CCSc1nc2c(c(=O)n1-c1ccc(OCC(F)(F)F)cc1)CC(=O)N2 [Example 312, ({4,6-Dioxo-3-[4-(2,2,2-trifluoroethoxy)phenyl]-4,5,6,7-tetrahydro-3H-pyrrolo[2,3-d]pyrimidin-2-yl}sulfanyl)acetonitrile] |
| 98 | CCc1c[nH]c2c(=O)n(-c3ccc(OCC(F)(F)F)cc3)c(SCCCC(=O)NCCC#N)nc12 [Example 171, N-(2-cyanoethyl)-4-({7-ethyl-4-oxo-3-[4-(2,2,2-trifluoroethoxy)phenyl]-4,5-dihydro-3H-pyrrolo[3,2-d]pyrimidin-2-yl}sulfanyl)butanamide] |
| 101 | CC(C)Sc1nc2c(c(=O)n1-c1ccc(OCC(F)(F)C(F)(F)F)cc1)CC(=O)N2 [Example 324, 2-[(1-Methylethyl)sulfanyl]-3-[4-(2,2,3,3,3-pentafluoropropoxy)phenyl]-5,7-dihydro-3H-pyrrolo[2,3-d]pyrimidine-4,6-dione] |
| 96 | N#CCCNC(=O)CCCSc1nc2cc[nH]c2c(=O)n1-c1ccc(OCC(F)(F)F)cc1 [Example 67] |
| 100 | O=C1Cc2c(nc(OC(CF)CF)n(-c3ccc(OCC(F)(F)F)cc3)c2=O)N1 [Example 338, 2-[2-Fluoro-1-(fluoromethyl)ethoxy]-3-[4-(2,2,2-trifluoroethoxy)phenyl]-5,7-dihydro-3H-pyrrolo[2,3-d]pyrimidine-4,6-dione] |
| 102 | CCCSc1nc2c(c(=O)n1-c1ccc(OCC(F)(F)F)cc1)CC(=O)N2 [Example 286, 2-(Propylsulfanyl)-3-[4-(2,2,2-trifluoroethoxy)phenyl]-5,7-dihydro-3H-pyrrolo[2,3-d]pyrimidine-4,6-dione] |
| 101 | O=c1c2cc[nH]c2nc(SCC2CC2)n1-c1ccc(OCC(F)(F)F)cc1 [Example 255, 2-[(Cyclopropylmethyl)sulfanyl]-3-[4-(2,2,2-trifluoroethoxy)phenyl]-3,7-dihydro-4H-pyrrolo[2,3-d]pyrimidin-4-one] |
| 98 | CSc1nc2c(c(=O)n1-c1ccc(OCC(F)(F)C(F)(F)F)cc1)CC(=O)N2 [Example 303, 2-(Methylsulfanyl)-3-[4-(2,2,3,3,3-pentafluoropropoxy)phenyl]-5,7-dihydro-3H-pyrrolo[2,3-d]pyrimidine-4,6-dione] |
| 100 | CC1(O)CCN(C(=O)CCCSc2nc3cc[nH]c3c(=O)n2-c2ccc(OCC(F)(F)F)cc2)CC1 [Example 134, 2-{[4-(4-Hydroxy-4-methylpiperidin-1-yl)-4-oxobutyl]sulfanyl}-3-[4-(2,2,2-trifluoroethoxy)phenyl]-3,5-dihydro-4H-pyrrolo[3,2-d]pyrimidin-4-one] |
| 99 | O=c1c2[nH]ccc2nc(SCCCS(=O)(=O)CC2CC2)n1-c1ccc(OCC(F)(F)F)cc1 [Example 165, 2-({3-[(Cyclopropylmethyl)sulfonyl]propyl}sulfanyl)-3-[4-(2,2,2-trifluoroethoxy)phenyl]-3,5-dihydro-4H-pyrrolo[3,2-d]pyrimidin-4-one] |

| Compound | inhibition at 10 µM [%] |
| --- | --- |
| CC(C)CCOc1ccc(-n2c(SCCCC(=O)NCCC#N)nc3cc[nH]c3c2=O)cc1 [Example 113, N-(2-cyanoethyl)-4-({3-[4-(3-methylbutoxy)phenyl]-4-oxo-4,5-dihydro-3H-pyrrolo[3,2-d]pyrimidin-2-yl}sulfanyl)butanamide] | 102 |
